Assay results as given in patent US20200087625A1, “METHODS FOR ISOLATING, EXPANDING AND ADMINISTERING CANCER SPECIFIC CD8+ T CELLS” (priority 2017, published 2020).

Experiments:
[1] = system: B16-GLF cells; experiment: IV metastasis model of B16 melanoma; assay type: in vivo, mice; conditions: systemic 1V270 day -1
Description: FIGS. 27A-27D. […] Therapeutic effects of 1V270 were evaluated in IV metastatic models of 816 melanoma (A, B) and LLC (C, D). BG-albino mice (n=B-10) (A, C), C57BL6 wild type mice (n=15-20) (B and D), were i.p. administered with 200 μg 1V270 or vehicle!iNext day, 5×10^5 B16-GLF cells (A) or 1×10^5 LLC-GLF cells (c) were i.v. administered (A,C). The tumor signals were quantified by IVIS at day 14. […] (B,D) The mice were monitored daily and were euthanized upon reaching the criteria according to UCSD IACUC guidelines. The survival data were analyzed by Log-Rank test. Data were pooled from 2 independent experiments showing similar results and were analyzed by Living Image® software. […] Statistical differences were analyzed by the Mann-Whitney U test comparing 1V270 treatment groups against the vehicle. **P<0.05.
GFP and luciferase (GLF)-expressing tumor cells (2×10^4 of 4T1-GLF, 5×10^5 of B16-GLF, and […] of LLC-GLF) were i.v. injected into BALB/c mice for 4T1 models, BG-albino or wild-type C57BU6 for B16 melanoma or LLC models). […] Image data were acquired by 1 Ss exposure using the IVIS Spectrum and analyzed using the Living Image software, version 4.5.2 (Perkin Elmer, Waltham, Mass.). We confirmed that the tumor signals in the lungs at day 10 correlated with the number of lung metastasis determined on day 21, as well as the overall survival (Supplemental figures 10). […]

[2] = system: 4T1 cells; experiment: Spontaneous lung metastasis model, orthotopic 4T1 breast cancer; assay type: in vivo, BALB/c mice
Description: FIGS. 22A-22C. Systemic administration of 1V270 inhibits lung metastasis in the 4T1 murine syngeneic breast cancer model in a CD8^+ T cell dependent manner. (A) Protocol of spontaneous metastasis model. 4T1 cells (5×10^5) were inoculated in both 4th mammary pads of Balb/c mice (n=13/group) 1V270 (20, 80, 04 200 μg/injection) was administered on days 7, 10, 14, 17, 21 and 24. (B) The numbers of lung nodules were counted by staining with India ink after harvesting lungs on day 27. (C) The mice (n=6-15/group) were orthotopically implanted with 4T1 cells and i.p. treated with 1V270 (20 μg/injection) as shown in FIG. 1A. CD8^+ cells were depleted by administration of anti-CD8 or isotype mAbs on days 5, 8, 11, 16, 19, and 23. The numbers of lung nodules were counted on day 27. Each dot indicates an individual mouse and horizontal and vertical bars indicate means±SEM. Data shown are pooled from 2 independent experiments. *P<0.05, **P<0.01 by Kruskal-Wallis test with Dunn's post hoc test comparing treatment groups against vehicle group. n.s; statistically not significant.
FIGS. 28A-28C. […] Tumor growth was measured with a caliper and calculated using the formula: volume (mm^3)=(width)^2×length/2. […]
In the spontaneous metastasis model, othotopically implanted tumor cells spontaneously form lung metastases within three weeks after implantation. […] Tumor length and width were recorded, and tumor volumes were calculated using the formula: volume (mm^3)=(width)^2×length/2. […] On day 21, mice were euthanized and tumor nodules in lungs were counted as described above. […] Tumor length and width were recorded, and tumor volumes were calculated similar with
4T1 cells (5×10^5) were inoculated into the 4th mammary pads on day 0, and 1V270 (20, 80, or 200 μg/injection) was injected intraperitoneally (i.p.) twice a week for three weeks, starting on day 7 (FIG. 22A). Both the primary tumor volumes and the numbers of lung metastases were evaluated on day 27. […]

CCCCCCCCC=CCCCCCCCC(=O)OCC(COP(=O)(O)OCCNC(=O)c1ccc(Cn2c(=O)[nH]c3c(N)nc(OCCOC)nc32)cc1)OC(=O)CCCCCCCC=CCCCCCCCC (centres unmarked) [1V270]
lung metastasis (IVIS tumor signal) ([1]; B16-GLF, day 14): inhibited lung metastasis by day 14
mouse survival ([1]; B16): prolonged mouse survival
tumor growth at the primary sites of implantation ([2]; 1V270 20, 80 or 200 μg/injection i.p. from day 7): did not retard tumor growth at the primary sites of implantation
number of lung metastases ([2]; 1V270 20, 80 or 200 μg/injection i.p. twice a week for three weeks from day 7, evaluated day 27): decreased the number of lung metastases
numbers of lung nodules after CD8+ cell depletion ([2]; anti-CD8 mAb depletion, 1V270 20 μg/injection i.p.): increased significantly
